In patent US8377455B2, “Biosurfactant composition produced by a new Bacillus licheniforms strain, uses and products thereof” (priority 2008, dated 2013):
Read-outs that look alike come from different tables or passages of the source.

Legend:
[1] = tested on: P. aeruginosa PA14 biofilm; type: cell-based, Pseudomonas aeruginosa
Procedure: (§1) E. coli CFT073 and E. coli O157:H7 were grown on Luria Bertani agar (LB, EMD Chemicals Inc.), P. aeruginosa PA14 and S. aureus were grown on TSB agar. Susceptibility testing of metals was performed in Minimal Salts Vitamins Glucose (MSVG) according to Teitzel and Parsek (2003), while Polycide susceptibility testing was performed in Phosphate Buffered Saline (PBS).
(§2) AgNO3 (Sigma) and CuSO4 (Sigma) were dissolved in double distilled water (ddH2O) to 150 mM and 500 mM respectively. Polycide was diluted in PBS to 25%. Solutions were sterile filtered and stored at 4° C. Serial two-fold dilutions were performed to create the challenge plate.
(§3) Biofilms were grown in the Calgary Biofilm Device (CBD) as described above. Starting from cryogenic stock, the strain was streaked out twice on TSA, and an inoculum was prepared by suspending colonies from the secondary agar subculture in 0.9% saline to match a 1.0 McFarland standard. This standard inoculum was diluted 1/30 in LB broth.
(§4) 150 μL of this inoculum was transferred into each well of a 96-well plate, and the sterile peg lid of the CBD was inserted into the plate. The inoculated device was then incubated at 125 rpm, for 24 h at 37° C. and 95% relative humidity. In an alternative set of experiments, biofilms were grown for 48 h before silver exposure and spent medium was changed with fresh medium after 24 h.
Following this period of incubation, biofilms were rinsed once with 0.9% saline (200 μL/well) to remove loosely adherent planktonic cells. Biofilm formation was evaluated by breaking off four pegs from each device after it has been rinsed. Biofilms were disrupted from pegs into 200 μL/well of LB supplemented with 1% Tween 20 using an ultrasonic cleaner for a period of 10 min (Aquasonic model 250T, VWR Scientific, Mississauga, Canada) as described above. The disrupted biofilms were serially diluted in 0.9% saline and plated on LB agar for viable cell counting. An initial set of quality control assays were carried out to ascertain that the strain used in this study formed equivalent biofilm on the CBD pegs as described in Harrison (2008). […]

E. coli CFT073 biofilm = type: cell-based, Escherichia coli; settings: for concentration for eradication of biofilm: 24 h exposure
Procedure: as §1
Extracted V9T14 biosurfactant was stored under the chemical hood providing solvent evaporation until dryness. The biosurfactant powder was homogenized using a porcelain mortar and a pestle. V9T14 was dissolved in PBS and pH was adjusted to 7.5 with 1 N NaOH. Volume was adjusted to match a final concentration of 5000 μg/mL.
as §2, §3, §4
Following this period of incubation, biofilms were rinsed once with 0.9% saline (200 μL/well) to remove loosely adherent planktonic cells. Biofilm formation was evaluated by breaking off four pegs from each device after it has been rinsed. Biofilms were disrupted from pegs into 200 μL/well of LB supplemented with 1% Tween 20 using an ultrasonic cleaner for a period of 10 min (Aquasonic model 250T, VWR Scientific, Mississauga, Canada) as described above. The disrupted biofilms were serially diluted in 0.9% saline and plated on LB agar for viable cell counting. An initial set of quality control assays were carried out to ascertain that the strain used in this study formed equivalent biofilm on the CBD pegs as described in Harrison (2008).
(§5) The challenge plate of biocides, antibiotics and biosurfactant was made in a 96-well plate. Biocides were serially two-fold diluted in PBS and V9T14 biosurfactant was added to each well at the final concentration of 5 μL/mL. Antibiotics were similarly diluted in Muller-Hinton broth, while metals were diluted in MSVG.
Biofilms that have been grown on lids of the CBD and rinsed once in 0.9% saline were inserted in the challenge plates. Following the exposure time at 37° C., biofilms were rinsed once with 0.9% saline (200 μL/well) and then placed in a microtiter “recovery” plate that contained 200 μL/well of neutralizing medium (TSB supplemented with 1% Tween 20, 2.0 g/L reduced glutathione, 1.0 g/L L-histidine, 1.0 g/L L-cysteine). The recovery plate was sonicated for a period of 10 min (Aquasonic model 250T, VWR Scientific, Mississauga, Canada). The disrupted biofilms were serially diluted in 0.9% saline and plated on the appropriate agar medium for viable cell counting. Plates were then incubated at 37° C. overnight and finally enumerated.

[2] = tested on: planktonic E. coli CFT073; type: cell-based, Escherichia coli
Procedure: as §5, with “MSVG. When prepared, each challenge plate had 7 sterility control, 8 growth control, 11 wells containing 5 μL/mL of V9T14 biosurfactant, 11 different concentrations of single biocide (or metals) and 11 different concentrations of biocide (or metals) associated with 5 μL/mL of V9T14 biosurfactant.” for “MSVG.”
To define MBC of biocides, recovery plates were incubated at 37° C. for 24-48 h and the adsorbance (OD650 nm) was read in a microtiter plate reader.

[3] = tested on: S. aureus ATCC 25923 biofilm; assay: High-throughput susceptibility testing of CBD biofilm to biocides/metals with or without V9T14; type: cell-based, Staphylococcus aureus; settings: 8 h exposure
Procedure: as §1, §2, §3
150 μL of this inoculum was transferred into each well of a 96-well plate, and the sterile peg lid of the CBD was inserted into the plate. […]
Following this period of incubation, biofilms were rinsed once with 0.9% saline (200 μL/well) to remove loosely adherent planktonic cells. Biofilm formation was evaluated by breaking off four pegs from each device after it has been rinsed. […]

O=[N+]([O-])[O-].[Ag+] [silver, silver nitrate]
concentration required to eradicate the biofilm ([1]; silver alone, 8 h exposure): 0.469 mM | concentration required to eradicate the biofilm ([1]; silver with 5 μg/mL V9T14, 8 h exposure): 0.117 mM | enhancement of killing activity by presence of V9T14 (E. coli CFT073 biofilm; 2 h exposure, 3.750 mM silver, 5 μg/mL V9T14): about 0.6 log10 | enhancement of killing activity by presence of V9T14 (E. coli CFT073 biofilm; 8 h exposure, 0.015 mM silver (p=0.03)): about 3.2 log10 | silver concentration needed with V9T14 relative to silver alone (fold less) (E. coli CFT073 biofilm; biofilm reduced below detection limit): 258 fold | concentration for eradication of biofilm (E. coli CFT073 biofilm; silver alone): 7.5 mM | concentration for eradication of biofilm (E. coli CFT073 biofilm; silver with 5 μg/mL V9T14 added): 0.029 mM | increase of killing efficacy by V9T14 (E. coli CFT073 biofilm; solution prepared 48 h before, 4 h exposure (p=0.0007)): about 2.3 log10 | metal concentration needed with V9T14 relative to silver alone (fold less) ([2]; 5 μg/mL V9T14, 24 h): 64 fold | concentration from which complete inhibition of growth was observed ([2]; silver alone, 24 h): 7.5 mM

O=S(=O)([O-])[O-].[Cu+2] [copper, cupric sulfate]
maximum increase of killing with V9T14 [1]: about 2.2 log10 | maximum reduction of viable cell count with V9T14 [3]: about 2.4 log10 | reduction of the concentration needed to bring biofilm below detectable count when V9T14 present [3]: about 95%
